Data: patent US20200345058A1, “Nicotine Oxalic Acid Formulations” (priority 2017, published 2020)

Details: 0.5% (w/w) nicotine or higher and 0.9% (w/w) tartaric acid or higher, ambient conditions
Source text: As used herein, weight percentage (w/w) refers to the weight of the individual component over the weight of the total formulation.

CN1CCCC1c1cccnc1.O=C(O)C(O)C(O)C(=O)O (stereo not shown) [nicotine bitartrate]
solubility in propylene glycol (PG), vegetable glycerin (VG) or any mixture (in words): will not produce a solution
